Source: US20250255304A1, “HIGHLY TRA[…] CONTROLLING COMPOSITION” (ZM Crop Protection Corporation, priority 2022, published 2025)

Key:
Type in all cases: in vivo
[1] = test system: Coptotermes formosanus Shiraki; experiment: Test Example 1: effect of agent on gypsum treated with test agent solution; conditions: dicloromezotiaz 0.023%, imidacloprid 0.1%, fipronil 0.03% test agent solution on gypsum
Description: A test agent solution containing 0.023 parts of dicloromezotiaz was prepared by adding 99.875 parts of water to 0.125 parts of the aqueous suspension composition shown in Formulation Example 1.
In a comparative example, an aqueous suspension composition prepared by adding an agent solution, wherein 99 parts of water was added to 1 part of a flowable containing 10.0 parts of imidacloprid and which contained 0.1 parts of imidacloprid and a drug solution, wherein 299 parts of water was added to 1 part of a flowable containing 9.1 parts of fipronil and which contained 0.03 parts of fipronil, uniformly mixing same was used as a test agent solution of a comparative example.
As the imidacloprid formulation and the fipronil formulation, commercially available termite controlling agents were used and diluted solutions at practical agent concentrations thereof were used as test agent solutions.
Gypsum was cured and spread in a glass petri dish having a diameter of 90 mm, 15 ml of each of the test agent solution of the example and the test agent solution of the comparative example was uniformly dropped on the entire surface of the gypsum. Thereafter, ten workers of Coptotermes formosanus Shiraki were released into the petri dish and the petri dish was covered and left to stand in a thermostatic chamber (25° C./relative humidity 60%).
The number of abnormal termites and the number of dead termites among the released termites (Coptotermes formosanus Shiraki) were observed every one hour from immediately after the release of the termites (Coptotermes formosanus Shiraki) until ten hours passed and the total number of the abnormal termite rate and the dead termite rate was calculated as the abnormal or dead termite rate (%) according to [Expression 1] below and the rates of expression of the effects of the respective agents were compared. Each test agent was prepared in one petri dish as one plot and the test was carried out in two replicates.

[2] = test system: Coptotermes formosanus Shiraki; experiment: Test Example 2: primary transmission treatment effect
Description: (§1) A test agent solution containing 0.023 parts of dicloromezotiaz was prepared by adding 99.875 parts of water to 0.125 parts of the aqueous suspension composition shown in Formulation Example 1. As comparative examples, four types of commercially available neonicotinoid termite controlling agents and four types of slow-acting termite controlling agents shown in Table 2 were diluted with water at practical concentrations to prepare test agent solutions. The “agent concentration (%)” indicates the concentration of the active ingredient contained in each of the composition of the present invention and the termite controlling agents and the “test agent solution concentration (%)” indicates the concentration of the active ingredient in each of the prepared test agent solutions.
(§2) After 1.2 g of each of the test agent solutions of the example and the comparative examples diluted to a predetermined concentration and prepared was added to 4.8 g of soil, 6 g of the mixed soil was spread in a glass petri dish having a diameter of 50 mm and ten workers of Coptotermes formosanus Shiraki were released into the petri dish and exposed to the agent solution for 4 hours.

[3] = test system: Coptotermes formosanus Shiraki; experiment: Test Example 2: secondary transmission treatment effect
Description: as §1, §2

[4] = test system: Coptotermes formosanus Shiraki; experiment: Test Example 3: extirpation test with dust formulation using simulated termite trails

Cc1cccn2c(=O)c(-c3cc(Cl)cc(Cl)c3)c([O-])[n+](Cc3cnc(Cl)s3)c12 [Dicloromezotiaz, dicloromezotiaz]
Abnormal or dead termite rate (%) ([1]; time elapsed 1 h): 0% | Abnormal or dead termite rate (%) ([1]; time elapsed 2 h): 0% | Abnormal or dead termite rate (%) ([1]; time elapsed 3 h): 0% | Abnormal or dead termite rate (%) ([1]; time elapsed 4 h): 0% | Abnormal or dead termite rate (%) ([1]; time elapsed 5 h): 0% | Abnormal or dead termite rate (%) ([1]; time elapsed 6 h): 19% | Abnormal or dead termite rate (%) ([1]; time elapsed 7 h): 37% | Abnormal or dead termite rate (%) ([1]; time elapsed 8 h): 51% | Abnormal or dead termite rate (%) ([1]; time elapsed 9 h): 78% | Abnormal or dead termite rate (%) ([1]; time elapsed 10 h): 100% | Abnormal or dead termite rate (%) ([2]; after 1 day, Table 3, dicloromezotiaz 0.023%, fipronil 0.03%, imidacloprid 0.10%, chlorantraniliprole 0.05% solution in soil): 100% | Abnormal or dead termite rate (%) ([2]; after 1 day, Table 4, dicloromezotiaz 0.023%, chlorfenapyr 0.11%, clothianidin 0.05%, dinotefuran 0.20%, thiamethoxam 0.10%, broflanilide 0.03% solution in soil): 100% | Abnormal or dead termite rate (%) ([2]; after 3 days, Table 3, dicloromezotiaz 0.023%, fipronil 0.03%, imidacloprid 0.10%, chlorantraniliprole 0.05% solution in soil): 100% | Abnormal or dead termite rate (%) ([2]; after 3 days, Table 4, dicloromezotiaz 0.023%, chlorfenapyr 0.11%, clothianidin 0.05%, dinotefuran 0.20%, thiamethoxam 0.10%, broflanilide 0.03% solution in soil): 100% | Abnormal or dead termite rate (%) ([2]; after 7 days, Table 3, dicloromezotiaz 0.023%, fipronil 0.03%, imidacloprid 0.10%, chlorantraniliprole 0.05% solution in soil): 100% | Abnormal or dead termite rate (%) ([2]; after 7 days, Table 4, dicloromezotiaz 0.023%, chlorfenapyr 0.11%, clothianidin 0.05%, dinotefuran 0.20%, thiamethoxam 0.10%, broflanilide 0.03% solution in soil): 100% | Abnormal or dead termite rate (%) ([2]; after 14 days, Table 3, dicloromezotiaz 0.023%, fipronil 0.03%, imidacloprid 0.10%, chlorantraniliprole 0.05% solution in soil): 100% | Abnormal or dead termite rate (%) ([2]; after 14 days, Table 4, dicloromezotiaz 0.023%, chlorfenapyr 0.11%, clothianidin 0.05%, dinotefuran 0.20%, thiamethoxam 0.10%, broflanilide 0.03% solution in soil): 100% | Abnormal or dead termite rate (%) ([2]; after 21 days, Table 3, dicloromezotiaz 0.023%, fipronil 0.03%, imidacloprid 0.10%, chlorantraniliprole 0.05% solution in soil): 100% | Abnormal or dead termite rate (%) ([2]; after 21 days, Table 4, dicloromezotiaz 0.023%, chlorfenapyr 0.11%, clothianidin 0.05%, dinotefuran 0.20%, thiamethoxam 0.10%, broflanilide 0.03% solution in soil): 100% | Abnormal or dead termite rate (%) ([3]; after 1 day, Table 5, dicloromezotiaz 0.023%, fipronil 0.03%, imidacloprid 0.10%, chlorantraniliprole 0.05% solution in soil): 8.9% | Abnormal or dead termite rate (%) ([3]; after 1 day, Table 6, dicloromezotiaz 0.023%, chlorfenapyr 0.11%, clothianidin 0.05%, dinotefuran 0.20%, thiamethoxam 0.10%, broflanilide 0.03% solution in soil): 2.2% | Abnormal or dead termite rate (%) ([3]; after 3 days, Table 5, dicloromezotiaz 0.023%, fipronil 0.03%, imidacloprid 0.10%, chlorantraniliprole 0.05% solution in soil): 83% | Abnormal or dead termite rate (%) ([3]; after 3 days, Table 6, dicloromezotiaz 0.023%, chlorfenapyr 0.11%, clothianidin 0.05%, dinotefuran 0.20%, thiamethoxam 0.10%, broflanilide 0.03% solution in soil): 44% | Abnormal or dead termite rate (%) ([3]; after 7 days, Table 5, dicloromezotiaz 0.023%, fipronil 0.03%, imidacloprid 0.10%, chlorantraniliprole 0.05% solution in soil): 91% | Abnormal or dead termite rate (%) ([3]; after 7 days, Table 6, dicloromezotiaz 0.023%, chlorfenapyr 0.11%, clothianidin 0.05%, dinotefuran 0.20%, thiamethoxam 0.10%, broflanilide 0.03% solution in soil): 88% | Abnormal or dead termite rate (%) ([3]; after 14 days, Table 5, dicloromezotiaz 0.023%, fipronil 0.03%, imidacloprid 0.10%, chlorantraniliprole 0.05% solution in soil): 91% | Abnormal or dead termite rate (%) ([3]; after 14 days, Table 6, dicloromezotiaz 0.023%, chlorfenapyr 0.11%, clothianidin 0.05%, dinotefuran 0.20%, thiamethoxam 0.10%, broflanilide 0.03% solution in soil): 88% | Abnormal or dead termite rate (%) ([3]; after 21 days, Table 5, dicloromezotiaz 0.023%, fipronil 0.03%, imidacloprid 0.10%, chlorantraniliprole 0.05% solution in soil): 92% | Abnormal or dead termite rate (%) ([3]; after 21 days, Table 6, dicloromezotiaz 0.023%, chlorfenapyr 0.11%, clothianidin 0.05%, dinotefuran 0.20%, thiamethoxam 0.10%, broflanilide 0.03% solution in soil): 84% | Abnormal or dead termite rate (%) ([4]; active ingredient concentration 0.10%, 1 h): 0% | Abnormal or dead termite rate (%) ([4]; active ingredient concentration 0.10%, 2 h): 0% | Abnormal or dead termite rate (%) ([4]; active ingredient concentration 0.10%, 3 h): 0% | Abnormal or dead termite rate (%) ([4]; active ingredient concentration 0.10%, 4 h): 25% | Abnormal or dead termite rate (%) ([4]; active ingredient concentration 0.10%, 5 h): 35% | Abnormal or dead termite rate (%) ([4]; active ingredient concentration 0.10%, 6 h): 40% | Abnormal or dead termite rate (%) ([4]; active ingredient concentration 0.10%, 7 h): 40% | Abnormal or dead termite rate (%) ([4]; active ingredient concentration 0.10%, 1 day): 85% | Abnormal or dead termite rate (%) ([4]; active ingredient concentration 0.10%, 2 days): 100% | Abnormal or dead termite rate (%) ([4]; active ingredient concentration 0.10%, 3 days): 100% | Abnormal or dead termite rate (%) ([4]; active ingredient concentration 0.10%, 7 days): 100% | Abnormal or dead termite rate (%) ([4]; active ingredient concentration 0.25%, 1 h): 0% | Abnormal or dead termite rate (%) ([4]; active ingredient concentration 0.25%, 2 h): 0% | Abnormal or dead termite rate (%) ([4]; active ingredient concentration 0.25%, 3 h): 25% | Abnormal or dead termite rate (%) ([4]; active ingredient concentration 0.25%, 4 h): 25% | Abnormal or dead termite rate (%) ([4]; active ingredient concentration 0.25%, 5 h): 60% | Abnormal or dead termite rate (%) ([4]; active ingredient concentration 0.25%, 6 h): 100% | Abnormal or dead termite rate (%) ([4]; active ingredient concentration 0.25%, 7 h): 100% | Abnormal or dead termite rate (%) ([4]; active ingredient concentration 0.25%, 1 day): 100% | Abnormal or dead termite rate (%) ([4]; active ingredient concentration 0.25%, 2 days): 100% | Abnormal or dead termite rate (%) ([4]; active ingredient concentration 0.25%, 3 days): 100% | Abnormal or dead termite rate (%) ([4]; active ingredient concentration 0.25%, 7 days): 100% | Abnormal or dead termite rate (%) ([4]; active ingredient concentration 0.5%, 1 h): 0% | Abnormal or dead termite rate (%) ([4]; active ingredient concentration 0.5%, 2 h): 0% | Abnormal or dead termite rate (%) ([4]; active ingredient concentration 0.5%, 3 h): 45% | Abnormal or dead termite rate (%) ([4]; active ingredient concentration 0.5%, 4 h): 45% | Abnormal or dead termite rate (%) ([4]; active ingredient concentration 0.5%, 5 h): 100% | Abnormal or dead termite rate (%) ([4]; active ingredient concentration 0.5%, 6 h): 100% | Abnormal or dead termite rate (%) ([4]; active ingredient concentration 0.5%, 7 h): 100% | Abnormal or dead termite rate (%) ([4]; active ingredient concentration 0.5%, 1 day): 100% | Abnormal or dead termite rate (%) ([4]; active ingredient concentration 0.5%, 2 days): 100% | Abnormal or dead termite rate (%) ([4]; active ingredient concentration 0.5%, 3 days): 100% | Abnormal or dead termite rate (%) ([4]; active ingredient concentration 0.5%, 7 days): 100% | Abnormal or dead termite rate (%) ([4]; active ingredient concentration 1%, 1 h): 0% | Abnormal or dead termite rate (%) ([4]; active ingredient concentration 1%, 2 h): 30% | Abnormal or dead termite rate (%) ([4]; active ingredient concentration 1%, 3 h): 85% | Abnormal or dead termite rate (%) ([4]; active ingredient concentration 1%, 4 h): 85% | Abnormal or dead termite rate (%) ([4]; active ingredient concentration 1%, 5 h): 100% | Abnormal or dead termite rate (%) ([4]; active ingredient concentration 1%, 6 h): 100% | Abnormal or dead termite rate (%) ([4]; active ingredient concentration 1%, 7 h): 100% | Abnormal or dead termite rate (%) ([4]; active ingredient concentration 1%, 1 day): 100% | Abnormal or dead termite rate (%) ([4]; active ingredient concentration 1%, 2 days): 100% | Abnormal or dead termite rate (%) ([4]; active ingredient concentration 1%, 3 days): 100% | Abnormal or dead termite rate (%) ([4]; active ingredient concentration 1%, 7 days): 100%
